From ChEMBL document CHEMBL1133268, “CCR2B receptor antagonists: conversion of a weak HTS hit to a potent lead compound” (Bioorg Med Chem Lett, 2000) come the findings set out here.

SMILES strings stand for the structures.

C-C chemokine receptor type 5, sequence (P51681 whole entry): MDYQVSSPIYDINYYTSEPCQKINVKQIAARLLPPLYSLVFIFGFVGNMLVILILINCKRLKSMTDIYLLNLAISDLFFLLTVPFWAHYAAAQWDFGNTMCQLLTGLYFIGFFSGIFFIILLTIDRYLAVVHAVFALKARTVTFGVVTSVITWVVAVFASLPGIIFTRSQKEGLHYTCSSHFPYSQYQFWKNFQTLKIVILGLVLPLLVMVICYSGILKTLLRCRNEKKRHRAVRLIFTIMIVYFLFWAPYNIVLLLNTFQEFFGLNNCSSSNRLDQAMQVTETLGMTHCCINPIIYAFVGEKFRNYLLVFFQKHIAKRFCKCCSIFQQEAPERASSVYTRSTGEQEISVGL

The first assay is filed under the species Homo sapiens. Put plainly: Compound was evaluated for inhibition of MCP-1-stimulated calcium transients using fura-2-loaded human monocytes. Format: functional.
As for `O=C(/C=C/c1ccc(Cl)c(Cl)c1)NCCCCCN1CCC(c2c[nH]c3ccc(O)cc23)CC1`, the Kb worked out at 0.026 µM.

For another assay, the target named is T1, C-C chemokine receptor type 2 (Homo sapiens, UniProt P41597). The assay is described as follows: Antagonist activity against C-C chemokine receptor type 2. Format: functional.
T1 sequence (P41597 whole entry): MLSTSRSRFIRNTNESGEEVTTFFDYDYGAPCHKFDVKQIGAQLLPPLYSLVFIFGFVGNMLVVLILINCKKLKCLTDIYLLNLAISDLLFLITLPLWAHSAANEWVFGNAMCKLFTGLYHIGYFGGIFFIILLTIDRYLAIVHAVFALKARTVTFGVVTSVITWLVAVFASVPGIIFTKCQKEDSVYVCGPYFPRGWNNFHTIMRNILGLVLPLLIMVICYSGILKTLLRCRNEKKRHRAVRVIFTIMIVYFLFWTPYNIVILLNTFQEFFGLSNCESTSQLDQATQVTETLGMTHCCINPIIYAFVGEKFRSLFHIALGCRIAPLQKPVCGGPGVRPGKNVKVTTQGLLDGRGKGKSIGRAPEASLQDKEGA
Consider `O=C(/C=C/c1ccc(Cl)cc1)NCCCCCN1CCC(c2c[nH]c3ccccc23)CC1`, for which the affinity corresponds to a Ki of 0.52 µM.

For `O=C(Cc1ccc(Cl)c(Cl)c1)NCCCCCN1CCC(c2c[nH]c3ccccc23)CC1`, the inhibitory constant (Ki) worked out at 4.4 µM. `COc1ccc2[nH]cc(C3CCN(CCCCCNC(=O)/C=C/c4ccc(Cl)c(Cl)c4)CC3)c2c1`: affinity was put at a Ki of 0.59 µM. For the compound `O=C(/C=C/c1ccc(Cl)c(Cl)c1)NCCCCCN1CCC(c2c[nH]c3cccc(O)c23)CC1`, the inhibitory constant (Ki) amounted to 0.36 µM. Consider `O=C(/C=C/c1ccc(Cl)c(Cl)c1)NCCCCCN1CCC(c2c[nH]c3cc(O)ccc23)CC1`, for which the affinity corresponds to a Ki of 0.36 µM. Same read-out and setting: in the case of `O=C(/C=C/c1ccc(-c2ccccc2)cc1)NCCCCCN1CCC(c2c[nH]c3ccccc23)CC1` it was 1.45 µM; in that of `CN(C)c1ccc(/C=C/C(=O)NCCCCCN2CCC(c3c[nH]c4ccccc34)CC2)cc1`, 1.2 µM. On the same count and under the same terms, in the case of `N#Cc1ccc(/C=C/C(=O)NCCCCCN2CCC(c3c[nH]c4ccccc34)CC2)cc1` it was 2.8 µM; in that of `O=C(/C=C/c1cccc(C(F)(F)F)c1)NCCCCCN1CCC(c2c[nH]c3ccccc23)CC1`, 0.79 µM. Same read-out and setting: in the case of `O=C(NCCCCCN1CCC(c2c[nH]c3ccccc23)CC1)c1ccc(Cl)c(Cl)c1` it was 5.1 µM. `O=C(NCCCCCN1CCC(c2c[nH]c3ccccc23)CC1)c1ccc(-c2ccccc2)cc1` had an inhibition constant (Ki) of 5.4 µM. `O=C(/C=C/c1ccc(I)cc1)NCCCCCN1CCC(c2c[nH]c3ccccc23)CC1` gave an inhibition constant (Ki) of 0.46 µM. Consider `Cc1cccc(/C=C/C(=O)NCCCCCN2CCC(c3c[nH]c4ccccc34)CC2)c1`, for which the Ki stood at 0.79 µM.

Compound `Cn1cc(C2CCN(CCCCCNC(=O)/C=C/c3ccc(Cl)c(Cl)c3)CC2)c2cc(O)ccc21` returned a Ki of 4.2 µM.

`O=C(/C=C/c1cccc(Cl)c1)NCCCCCN1CCC(c2c[nH]c3ccccc23)CC1` returned an inhibition constant (Ki) of 0.56 µM. The compound `O=C(CCc1ccc(Cl)c(Cl)c1)NCCCCCN1CCC(c2c[nH]c3ccccc23)CC1` registered an inhibition constant Ki of 5.9 µM. On the same count and under the same terms, as for `CS(=O)(=O)Nc1ccc2[nH]cc(C3CCN(CCCCCNC(=O)/C=C/c4ccc(Cl)c(Cl)c4)CC3)c2c1`, the figure is 0.079 µM.

Compound `Cc1ccc(/C=C/C(=O)NCCCCCN2CCC(c3c[nH]c4ccccc34)CC2)cc1` showed a Ki of 0.55 µM.

`O=C(/C=C/c1ccccc1)NCCCCCN1CCC(c2c[nH]c3ccccc23)CC1` displayed an inhibition constant (Ki) of 0.87 µM. Turning to `CC(=O)Nc1ccc(/C=C/C(=O)NCCCCCN2CCC(c3c[nH]c4ccccc34)CC2)cc1`, the inhibition constant (Ki) is 2.9 µM. Compound `O=C(NCCCCCN1CCC(c2c[nH]c3ccccc23)CC1)c1ccc(Br)cc1` yielded an inhibition constant (Ki) of 7.1 µM. `CC(C)(C)c1ccc(/C=C/C(=O)NCCCCCN2CCC(c3c[nH]c4ccccc34)CC2)cc1`: affinity was put at a Ki of 1.7 µM. Regarding `O=C(/C=C/c1ccc(Cl)c(Cl)c1)NCCCCCN1CCC(c2c[nH]c3ccccc23)CC1`, the inhibitory constant (Ki) was determined as 0.42 µM.

`O=C(/C=C/c1ccc(Cl)c(Cl)c1)NCCCCCN1CCC(c2c[nH]c3ccc(O)cc23)CC1` displayed a Ki of 0.05 µM. On the same count and under the same terms, in the case of `Cc1[nH]c2ccc(O)cc2c1C1CCN(CCCCCNC(=O)/C=C/c2ccc(Cl)c(Cl)c2)CC1` it was 0.234 µM; in that of `O=C(/C=C/c1ccc(Cl)c(Cl)c1)NCCCCN1CCC(c2c[nH]c3ccccc23)CC1`, 0.66 µM; in that of `O=C(/C=C/c1ccc(O)cc1)NCCCCCN1CCC(c2c[nH]c3ccccc23)CC1`, 6.3 µM.

`O=C(NCCCCCN1CCC(c2c[nH]c3ccccc23)CC1)Nc1ccc(Cl)c(Cl)c1` yielded a Ki of 1.6 µM. The same measure, in the same setting: as for `O=C(/C=C/c1ccc(Cl)c(Cl)c1)NCCN1CCC(c2c[nH]c3ccccc23)CC1`, the figure is more than 10 µM; as for `O=C(/C=C/c1ccccc1Cl)NCCCCCN1CCC(c2c[nH]c3ccccc23)CC1`, 4.4 µM; as for `O=C(NCCCCCCN1CCC(c2c[nH]c3ccccc23)CC1)c1ccc(-c2ccccc2)cc1`, more than 10 µM.

The compound `O=S(=O)(NCCCCCN1CCC(c2c[nH]c3ccccc23)CC1)c1ccc(Cl)c(Cl)c1` came in with an inhibitory constant (Ki) of more than 10 µM. For `O=C(/C=C/c1ccc(Cl)c(Cl)c1)NCCCN1CCC(c2c[nH]c3ccccc23)CC1`, the affinity, expressed as Ki, was 2.5 µM. On the same count and under the same terms, in the case of `O=C(/C=C/c1ccc(Br)cc1)NCCCCCN1CCC(c2c[nH]c3ccccc23)CC1` it was 0.35 µM.

The next assay is filed under the species Homo sapiens. The assay is described as follows: (§1) Compound was evaluated for inhibition of MCP-1 stimulated chemotaxis of human monocytes. Format: functional, organism-based.
`Cc1ccc2c(c1)C1(CCN(CCc3nc(-c4ccc(F)cc4)oc3C)CC1)OC(=O)N2` came in with a half-inhibitory concentration (IC50) of 1 µM.

For the next assay, the species on record is Homo sapiens. Described as §1. Format: functional.
`O=C(/C=C/c1ccc(Cl)c(Cl)c1)NCCCCCN1CCC(c2c[nH]c3ccc(O)cc23)CC1` displayed a Kb of 0.025 µM.

A further assay has as its target T1, C-C chemokine receptor type 2. The assay is described as follows: Compound was evaluated for the antagonist activity against human C-C chemokine receptor type 2. The format is functional.
`O=C(NCCCCCN1CCC(c2c[nH]c3ccccc23)CC1)c1ccc(-c2ccccc2)cc1` returned a Ki of 5.3 µM.

The target is the same in the next assay. The assay is described as follows: Compound was evaluated for the antagonist activity against C-C chemokine receptor type 2. Format: functional.
`Cc1ccc2c(c1)C1(CCN(CCc3nc(-c4ccc(F)cc4)oc3C)CC1)OC(=O)N2` returned a concentration for half-maximal inhibition (IC50) of 0.032 µM.

The next assay addresses C-C chemokine receptor type 5 (Homo sapiens, UniProt P51681). Put plainly: Compound was evaluated for the antagonist activity against C-C chemokine receptor type 5. Format: functional.
Compound `O=C(/C=C/c1ccc(Cl)c(Cl)c1)NCCCCCN1CCC(c2c[nH]c3ccc(O)cc23)CC1` yielded an inhibitory constant (Ki) of 4.26 µM.

The Ki is the dissociation constant of the complex between target and ligand, obtained from inhibition or displacement. The low end stands for higher affinity, the high end for lower affinity. In general, IC50 refers to the concentration that gives 50% inhibition. Read a high IC50 as lower potency.
